The test system of the assay is human patients. The assay is described as follows: Administration to human patients, efficacy as a cognition enhancer. The class given is in vivo. The method, then:
Compound X has active doses around 5-125 microgramme (μg) (calculated as free base). It has been found through administration to human patients that efficacy as a cognition enhancer may be obtained at daily doses below 0.01 mg/kg more particularly 0.003 mg/kg and below, for example 0.0001-0.003 mg/kg, such as 0.00035-0.003 mg/kg. 0.0007-0.003 mg/kg, 0.0001-0.0007 mg/kg or 0.00035-0.002 mg/kg.

For `CO/N=C(\C#N)[C@H]1CN2CCC1CC2.Cl` [Compound X, [R-(Z)]-α-(methoxyimino)-α-(1-azabicyclo [2.2.2]oct-3-yl)acetonitrile monohydrochloride], the active doses (calculated as free base) was 5 to 125 µg. Under “human patients, daily dose”, the “daily doses at which efficacy as a cognition enhancer may be obtained” value is “below 0.01 mg/kg”.
